{"source": "patent US8030443B2", "about": "“Squamous cell carcinoma antigen-derived peptide binding to HLA-A24 molecule” (Kurume University, priority 2005, dated 2011)", "test_system": "YES-2 (HLA-A24^+, SCCA^+) esophageal squamous cell carcinoma cells", "experiment": "6-h 51Cr-release cytotoxicity assay of peptide-stimulated CTLs", "assay_type": "cell-based, human", "from_the_text": "Cultured cells in wells producing IFN-γ in response to a corresponding peptide were collected and further cultured with IL-2 alone for 10-14 days in order to obtain a sufficiently large number of cells to perform a standard 6-h ^51Cr-release assay. The following tumor cell lines were used as targets; YES-1 (HLA-A24^− and SCCA^+ esophageal squamous cell carcinoma), and YES-2 (HLA -A24^+ and SCCA^+ esophageal squamous cell carcinoma). Phytohemagglutinin (PHA)-stimulated blastoid T cells were also used as a negative control. In some experiments, 20 μg/ml of anti-HLA-class I (W6/32, IgG2a) (BioLegend, Camino Santa Fe, San Diego, Calif., USA), anti-HLA-class II (H-DR-1, IgG2a) (kindly provided by Dr. Yasuji NISHIMURA, KUMAMOTO UNIVERSITY, Japan), anti-CD4 (Nu-Th/i, IgG1) (established at Department of Immunology, Kurume University School of Medicine, Japan), or anti-CD8 (Nu-Ts/c, IgG2a) monoclonal antibody (mAb) (established at Department of Immunology, Kurume University School of Medicine, Japan) were added to the wells at the initiation of the assay. An anti-CD14 (JML-H14, IgG2a) mAb (established at Department of Immunology, Kurume University School of Medicine, Japan) was used as a negative control.", "note": "Residues, ends and D or L forms follow the SMILES beside them."}
{"smiles": "CC(C)C[C@H](NC(=O)[C@H](CO)NC(=O)[C@H](C)NC(=O)[C@H](Cc1ccccc1)NC(=O)[C@H](Cc1c[nH]cn1)NC(=O)[C@H](Cc1ccccc1)NC(=O)[C@H](CO)NC(=O)[C@@H](NC(=O)[C@H](Cc1ccc(O)cc1)NC(=O)[C@@H](N)CCC(N)=O)[C@@H](C)O)C(=O)O", "note": "[SCCA 215, QYTSFHFASL] (H-QYTSFHFASL-OH)", "values": [{"measurement": "Cytotoxicity of peptide-stimulated CTLs against YES-2 cells", "result": "exhibited cytotoxicity against YES-2 cells in an HLA class I-restricted manner"}]}
{"smiles": "CC(C)C[C@H](NC(=O)[C@H](Cc1ccc(O)cc1)NC(=O)[C@H](CCC(=O)O)NC(=O)[C@H](CCC(N)=O)NC(=O)[C@H](CC(C)C)NC(=O)[C@H](Cc1ccccc1)NC(=O)[C@H](CC(C)C)NC(=O)[C@H](Cc1ccc(O)cc1)NC(=O)[C@@H](N)[C@@H](C)O)C(=O)O", "note": "[SCCA 112, TYLFLQEYL] (H-TYLFLQEYL-OH)", "values": [{"measurement": "Cytotoxicity of peptide-stimulated CTLs against YES-2 cells", "result": "exhibited cytotoxicity against YES-2 cells in an HLA class I-restricted manner"}]}
{"smiles": "CC[C@H](C)[C@H](NC(=O)CNC(=O)[C@H](CC(C)C)NC(=O)[C@H](CC(C)C)NC(=O)[C@H](CCC(N)=O)NC(=O)[C@H](CCC(N)=O)NC(=O)[C@H](CCCNC(=N)N)NC(=O)[C@H](CC(C)C)NC(=O)[C@H](Cc1ccc(O)cc1)NC(=O)[C@@H](N)CCCNC(=N)N)C(=O)O", "note": "[HIV peptide, RYLRQQLLGI, reference compound] (H-RYLRQQLLGI-OH)", "values": [{"measurement": "Cytotoxicity of peptide-stimulated CTLs/PBMCs", "setting": "SCC patients (Pts 2, 5, 7, 8), targets YES-2, YES-1, PHA-stimulated T-cell blasts (FIG. 4B)", "result": "did not show any cytotoxicity"}]}
